Assay results: US20110086759A1, “CHEMICAL COMPOUNDS” (SYNGENTA CROP PROTECTION, INC., priority 2007, published 2011)

Assays:
Format in all cases: in vivo
[1] = test system: Ipomea hederaceae (IPOHE); assay: Post-emergence biological efficacy, glasshouse pot test; details: Ipomoea hederacea, 312 h; post-emergence, 1,000 g/ha, evaluated after 13 days (100=total damage; 0=no damage); read-out: Percentage damage caused to weed species, IPOHE
Protocol: (§1) Seeds of Alopecurus myosuroides (ALOMY), Setaria faberi (SETFA), Echinochloa crus-galli (ECHCG), Solanum nigrum (SOLNI), Amaranthus retoflexus (AMARE) and Ipomea hederaceae (IPOHE) were sown in standard soil in pots. After cultivation for 8 days under controlled conditions in a glasshouse (at 24/16° C., day/night; 14 hours light; 65% humidity), the plants were sprayed with an aqueous spray solution derived from the formulation of the technical active ingredient in acetone/water (50:50) solution containing 0.5% Tween 20 (polyoxyethelyene sorbitan monolaurate, CAS RN 9005-64-5) to give a final dose of 1000 or 250 g/ha of test compound.
(§2) The test plants were then grown on under controlled conditions in a glasshouse (at 24/16° C., day/night; 14 hours light; 65% humidity) and watered twice daily. After 13 days the test was evaluated (100=total damage to plant; 0=no damage to plant).

[2] = test system: Amaranthus retoflexus (AMARE); assay: as above; details: Amaranthus retroflexus, 312 h; post-emergence, 1,000 g/ha, evaluated after 13 days (100=total damage; 0=no damage); read-out: Percentage damage caused to weed species, AMARE
Protocol: as §1, §2

[3] = test system: Echinochloa crus-galli (ECHCG); assay: as above; details: 312 h, post-emergence, 1,000 g/ha, evaluated after 13 days (100=total damage; 0=no damage), read-out: Percentage damage caused to weed species, ECHCG
Protocol: as §1, §2

Setaria faberi (SETFA) [4] = assay: as above; details: 312 h, post-emergence, 1,000 g/ha, evaluated after 13 days (100=total damage; 0=no damage), read-out: Percentage damage caused to weed species, SETFA
Protocol: as §1, §2

Solanum nigrum (SOLNI) [5] = assay: as above; details: 312 h, post-emergence, 1,000 g/ha, evaluated after 13 days (100=total damage; 0=no damage), read-out: Percentage damage caused to weed species, SOLNI
Protocol: as §1, §2

[6] = test system: Alopecurus myosuroides (ALOMY); assay: as above; details: 312 h, post-emergence, 1,000 g/ha, evaluated after 13 days (100=total damage; 0=no damage), read-out: Percentage damage caused to weed species, ALOMY
Protocol: as §1, §2

[7] = test system: Ipomea hederaceae (IPOHE); assay: Pre-emergence biological efficacy, glasshouse pot test; details: Ipomoea hederacea, 312 h; pre-emergence, 1,000 g/ha, evaluated after 13 days (100=total damage; 0=no damage); read-out: Percentage damage IPOHE
Protocol: as §1, with “one day” for “8 days”
(§3) The test plants were then grown under controlled conditions in the glasshouse (at 24/16° C., day/night; 14 hours light; 65% humidity) and watered twice daily. After 13 days the test was evaluated (100=total damage to plant; 0=no damage to plant).

[8] = test system: Amaranthus retoflexus (AMARE); assay: as above; details: Amaranthus retroflexus, 312 h; pre-emergence, 1,000 g/ha, evaluated after 13 days (100=total damage; 0=no damage); read-out: Percentage damage AMARE
Protocol: as §1, with “one day” for “8 days”
as §3

[9] = test system: Echinochloa crus-galli (ECHCG); assay: as above; details: 312 h, pre-emergence, 1,000 g/ha, evaluated after 13 days (100=total damage; 0=no damage), read-out: Percentage damage ECHCG
Protocol: as §1, with “one day” for “8 days”
as §3

Setaria faberi (SETFA) [10] = assay: as above; details: 312 h, pre-emergence, 1,000 g/ha, evaluated after 13 days (100=total damage; 0=no damage), read-out: Percentage damage SETFA
Protocol: as §1, with “one day” for “8 days”
as §3

Solanum nigrum (SOLNI) [11] = assay: as above; details: 312 h, pre-emergence, 1,000 g/ha, evaluated after 13 days (100=total damage; 0=no damage), read-out: Percentage damage SOLNI
Protocol: as §1, with “one day” for “8 days”
as §3

[12] = test system: Alopecurus myosuroides (ALOMY); assay: as above; details: 312 h, pre-emergence, 1,000 g/ha, evaluated after 13 days (100=total damage; 0=no damage), read-out: Percentage damage ALOMY
Protocol: as §1, with “one day” for “8 days”
as §3

| SMILES | pest or weed control at 1000 g/ha [1] | pest or weed control at 1000 g/ha [2] | pest or weed control at 1000 g/ha [3] | pest or weed control at 1000 g/ha (Setaria faberi (SETFA) [4]) | pest or weed control at 1000 g/ha (Solanum nigrum (SOLNI) [5]) | pest or weed control at 1000 g/ha [6] | pest or weed control at 1000 g/ha [7] | pest or weed control at 1000 g/ha [8] | pest or weed control at 1000 g/ha [9] | pest or weed control at 1000 g/ha (Setaria faberi (SETFA) [10]) | pest or weed control at 1000 g/ha (Solanum nigrum (SOLNI) [11]) | pest or weed control at 1000 g/ha [12] |
| --- | --- | --- | --- | --- | --- | --- | --- | --- | --- | --- | --- | --- |
| COC(=O)c1nc(C2CC2)nc(N[C@H]2COC[C@H]2O)c1Cl [4-38 (S,S), 5-Chloro-2-cyclopropyl-4-[(3S, 4S)-4-hydroxytetra-hydrofuran-3-ylamino]-6-methoxycarbonyl-pyrimidine] | 30% | 100% | 10% | 60% | 80% | 30% | 70% | 100% | 30% | 30% | 80% | 20% |
| COC(=O)c1nc(C2CC2)nc(N[C@@H](C)C2CCCCC2)c1Cl [4-173 (S), 5-Chloro-4-[(1S)-1-(cyclohexyl)ethyl-amino]-2-cyclopropyl-6-methoxycarbonyl-pyrimidine] | 40% | 20% | 0% | 0% | 20% | 0% | 0% | 20% | 0% | 0% | 0% | 0% |
| COC(=O)c1nc(C2CC2)nc(N[C@@H](C)c2cccc(OC)c2)c1Cl [4-180 (S), (S)-5-Chloro-2-cyclopropyl-6-methoxycarbonyl-4-[1-(3-methoxy-phenyl)ethylamino]-pyrimidine] | 80% | 80% | 50% | 30% | 70% | 20% | 80% | 20% | 0% | 0% | 10% | 0% |
| COC(=O)c1nc(C2CC2)nc(N[C@@H](C)c2ccc(OC)cc2)c1Cl [4-181 (S), (S)-5-Chloro-2-cyclopropyl-6-methoxycarbonyl-4-[1-(4-methoxy-phenyl)ethylamino]-pyrimidine] | 90% | 100% | 50% | 40% | 90% | 30% | 80% | 60% | 50% | 0% | 60% | 20% |
| COC(=O)c1nc(C2CC2)nc(N[C@H](C)c2cccc3ccccc23)c1Cl [4-184 (R), (R)-5-Chloro-2-cyclopropyl-6-methoxycarbonyl-4-[1-(naphth-1-yl)ethylamino]-pyrimidine] | 70% | 80% | 40% | 20% | 60% | 10% | 0% | 0% | 0% | 0% | 0% | 0% |
| COC(=O)c1nc(C2CC2)nc(N[C@H](C)c2ccc3ccccc3c2)c1Cl [4-185 (R), (R)-5-Chloro-2-cyclopropyl-6-methoxycarbonyl-4-[1-(naphtha-2-yl)ethylamino]-pyrimidine] | 70% | 80% | 0% | 0% | 40% | 0% | 70% | 0% | 0% | 0% | 0% | 0% |
| COC(=O)c1nc(C2CC2)nc(N[C@@H](CO)c2ccccc2)c1Cl [4-203 (R), 5-Chloro-2-cyclopropyl-4-[(1R)-2-hydroxy-1-phenyl-ethylamino]-6-methoxycarbonyl-pyrimidine] | 50% | 100% | 30% | 40% | 80% | 20% | 100% | 90% | 20% | 30% | 80% | 20% |
| COC(=O)c1nc(C2CC2)nc(N[C@H](CO)c2ccccc2)c1Cl [4-203 (S), 5-Chloro-2-cyclopropyl-4-[(1S)-2-hydroxy-1-phenyl-ethylamino]-6-methoxycarbonyl-pyrimidine] | 70% | 100% | 30% | 50% | 80% | 30% | 80% | 70% | 20% | 40% | 80% | 20% |
| COC(=O)c1nc(C2CC2)nc(N[C@@H](C)[C@H](O)c2ccccc2)c1Cl [4-270 (1S,2R), 5-Chloro-2-cyclopropyl-4-[(1S, 2R)-2-hydroxy-1-methyl-2-phenyl-ethylamino]-6-methoxycarbonyl-pyrimidine] | 100% | 100% | 30% | 80% | 100% | 40% | 100% | 70% | 20% | 30% | 80% | 20% |
| COC(=O)c1nc(C2CC2)nc(N[C@H](C)[C@@H](O)c2ccccc2)c1Cl [4-270 (erythro), 5-Chloro-2-cyclopropyl-4-(erythro-2-hydroxy-1-methyl-2-phenyl-ethylamino)-6-methoxycarbonyl-pyrimidine] | 100% | 100% | 60% | 80% | 80% | 30% | 100% | 80% | 30% | 30% | 80% | 30% |
